Measured values reported in patent US9981938B2, “Quaternary ammonium alkyl esters as stable prodrugs” (ALLERGAN, INC., priority 2014, dated 2018).

Assay: Stability of compounds in aqueous solution
Assay type: physicochemical
Conditions: compound dissolved in aqueous solution, in %; for stability, 25° C./ 7 days: maintained at 25° C. for 7 days; for stability, 25° C./ 14 days: maintained at 25° C. for 14 days; for stability, 40° C./ 7 days: maintained at 40° C. for 7 days
Description: In some embodiments the stability of the compound is such that, when stored in an aqueous solution at 25° C. for 7 days or 14 days, at least about 70%, at least about 80%, at least about 90%, at least about 95%, at least about 97%, at least about 99% of the original compound, and up to about 100% of the original compound remains in the solution. In some embodiments, the stability of the compound is such that at least about 70%, at least about 80%, at least about 90%, at least about 95%, at least about 97%, at least about 99% of the original compound, and up to about 100% of original compound remains after 7 days of storage in an aqueous solution at 40° C.
The following Table 1 depicts various embodiments indicating the stability of compounds depicted by their respective structures in the table. The compounds were dissolved in an aqueous solution, and maintained at the indicated temperatures, for 7 to 14 days, as indicated.

| SMILES | stability, 25° C./ 7 days | stability, 25° C./ 14 days | stability, 40° C./ 7 days |
| --- | --- | --- | --- |
| O=C(OCCCN1CCOCC1)c1ccc(CCC[C@@H]2[C@@H](CCc3cc(Cl)cc(Cl)c3)[C@H](O)C[C@H]2Cl)s1 [Compound 6, 5-(3-{(1R, 2R, 3R, 5R)-5-Chloro-2-[2-(3,5-dichlorophenyl)ethyl]-3-hydroxycyclopentyl}propyl)thiophene-2-carboxylic acid, 3-morpholin-4-yl propyl ester] | 103.0 | 102.9 | 98.0 |
| O=C(Oc1ccc(CN2CCOCC2)cc1)c1ccc(CCC[C@@H]2[C@@H](CCc3cc(Cl)cc(Cl)c3)[C@H](O)C[C@H]2Cl)s1 [Compound 3, 5-(3-{(1R, 2R, 3R, 5R)-5-Chloro-2-[2-(3,5-dichlorophenyl)ethyl]-3-hydroxycyclopentyl}-propyl)thiophene-2-carboxylic acid 4-morpholin-4-ylmethyl phenyl ester] | 97.3 | 97.3 | 91.7 |
| CN(C)Cc1ccc(OC(=O)c2ccc(CCC[C@@H]3[C@@H](CCc4cc(Cl)cc(Cl)c4)[C@H](O)C[C@H]3Cl)s2)cc1 [Compound 2, 5-(3-{(1R, 2R, 3R, 5R)-5-Chloro-2-[2-(3,5-dichlorophenyl)ethyl]-3-hydroxycyclopentyl}-propyl)thiophene-2-carboxylic acid 4-dimethylaminomethyl phenyl ester] | 96.4 | 95.2 | 78.0 |
| CCN(CC)CCOC(=O)c1ccc(CCC[C@@H]2[C@@H](CCc3cc(Cl)cc(Cl)c3)[C@H](O)C[C@H]2Cl)s1 [Compound 8, 5-(3-{(1R, 2R, 3R, 5R)-5-Chloro-2-[2-(3,5-dichlorophenyl)ethyl]-3-hydroxycyclopentyl}-propyl)thiophene-2-carboxylic acid, 2-diethylaminoethyl ester] | 95.8 | 84.6 | 79.1 |
| CC(CN(C)C)OC(=O)c1ccc(CCC[C@@H]2[C@@H](CCc3cc(Cl)cc(Cl)c3)[C@H](O)C[C@H]2Cl)s1 (stereo partly drawn) [Compound 7, 5-(3-{(1R, 2R, 3R, 5R)-5-Chloro-2-[2-(3,5-dichlorophenyl)ethyl]-3-hydroxycyclopentyl}propyl)thiophene-2-carboxylic acid, 2-dimethylamino-1-methyl ethyl ester] | 94.3 | 78.5 | 70.3 |
| CC[N+](C)(CC)CCCOC(=O)c1ccc(CCC[C@@H]2[C@@H](CCc3cc(Cl)cc(Cl)c3)[C@H](O)C[C@H]2Cl)s1 [Compound 9, {3-[5-(3-{(1R, 2R, 3R, 5R)-5-Chloro-2-[2-(3,5-dichlorophenyl)ethyl]-3-hydroxycyclopentyl}-propyl)thiophene-2-carbonyloxy]propyl}diethyl methyl ammonium iodide] | 100.5 | 101.1 | 101.8 |
| CN(C)c1ccc(OC(=O)c2ccc(CCC[C@@H]3[C@@H](CCc4cc(Cl)cc(Cl)c4)[C@H](O)C[C@H]3Cl)s2)cc1 [Compound 4, 5-(3-{(1R, 2R, 3R, 5R)-5-Chloro-2-[2-(3,5-dichlorophenyl)ethyl]-3-hydroxycyclopentyl}-propyl)thiophene-2-carboxylic acid 4-dimethylaminophenyl ester] | 98.7 | 100.2 | 96.0 |
| CC(CCN1CCOCC1)OC(=O)c1ccc(CCC[C@@H]2[C@@H](CCc3cc(Cl)cc(Cl)c3)[C@H](O)C[C@H]2Cl)s1 (stereo partly drawn) [Compound 5, 5-(3-{(1R, 2R, 3R, 5R)-5-Chloro-2-[2-(3,5-dichlorophenyl)ethyl]-3-hydroxycyclopentyl}propyl)thiophene-2-carboxylic acid, 1-methyl-3-morpholin-4-yl propyl ester] | 98.5 | 95.4 | 89.3 |
